Data as given in ChEMBL document CHEMBL1201862, “PubChem BioAssay data set” (2004).
Calls of active or inactive are those of the source.

What was measured:
[1] = target: T1, RNA-binding protein pos-1 (Caenorhabditis elegans, UniProt G5EF15); assay: inhibitors of POS-1/mex-3 RNA binding, dose response, biochemical, fluorescence polarization (AID 1964);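 note: purified POS-1 fused to maltose binding protein made in E. coli; potency of compounds blocking POS-1 binding to fluorescent RNA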
T1 sequence (G5EF15 whole entry): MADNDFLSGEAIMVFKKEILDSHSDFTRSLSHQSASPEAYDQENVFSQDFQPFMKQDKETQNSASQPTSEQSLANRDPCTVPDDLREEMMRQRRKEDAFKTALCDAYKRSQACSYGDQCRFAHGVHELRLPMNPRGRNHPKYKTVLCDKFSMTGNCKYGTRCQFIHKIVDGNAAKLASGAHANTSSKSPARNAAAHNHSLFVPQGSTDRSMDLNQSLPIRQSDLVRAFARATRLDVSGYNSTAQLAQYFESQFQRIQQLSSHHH

[2] = target: T2, Zinc finger protein mex-5 (Caenorhabditis elegans, UniProt Q9XUB2); assay: MEX-5/TCR-2 RNA interaction inhibitors, dose response, biochemical, C. elegans, fluorescence polarization (AID 1960)
T2 sequence (Q9XUB2 whole entry): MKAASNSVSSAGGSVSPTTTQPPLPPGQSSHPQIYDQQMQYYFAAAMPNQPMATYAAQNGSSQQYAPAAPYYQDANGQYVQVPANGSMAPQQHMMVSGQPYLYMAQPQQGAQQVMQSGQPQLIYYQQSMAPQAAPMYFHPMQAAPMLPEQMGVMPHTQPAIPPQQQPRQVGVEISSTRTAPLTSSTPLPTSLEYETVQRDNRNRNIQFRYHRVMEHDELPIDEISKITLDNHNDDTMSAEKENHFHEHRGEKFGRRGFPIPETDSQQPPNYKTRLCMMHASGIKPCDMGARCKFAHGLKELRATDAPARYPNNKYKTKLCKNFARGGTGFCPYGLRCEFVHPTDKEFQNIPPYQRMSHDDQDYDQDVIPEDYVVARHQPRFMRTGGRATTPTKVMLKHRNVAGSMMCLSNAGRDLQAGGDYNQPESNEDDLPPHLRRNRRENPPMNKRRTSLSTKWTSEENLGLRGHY

[3] = microbe, parasite or virus in culture; format: functional; details: Mycobacterium tuberculosis
[4] = target: Luciferin 4-monooxygenase (Photinus pyralis, UniProt P08659); assay: firefly luciferase enzyme inhibitors, dose response, biochemical, luminescence (AID 1891)
Luciferin 4-monooxygenase, sequence (P08659 whole entry): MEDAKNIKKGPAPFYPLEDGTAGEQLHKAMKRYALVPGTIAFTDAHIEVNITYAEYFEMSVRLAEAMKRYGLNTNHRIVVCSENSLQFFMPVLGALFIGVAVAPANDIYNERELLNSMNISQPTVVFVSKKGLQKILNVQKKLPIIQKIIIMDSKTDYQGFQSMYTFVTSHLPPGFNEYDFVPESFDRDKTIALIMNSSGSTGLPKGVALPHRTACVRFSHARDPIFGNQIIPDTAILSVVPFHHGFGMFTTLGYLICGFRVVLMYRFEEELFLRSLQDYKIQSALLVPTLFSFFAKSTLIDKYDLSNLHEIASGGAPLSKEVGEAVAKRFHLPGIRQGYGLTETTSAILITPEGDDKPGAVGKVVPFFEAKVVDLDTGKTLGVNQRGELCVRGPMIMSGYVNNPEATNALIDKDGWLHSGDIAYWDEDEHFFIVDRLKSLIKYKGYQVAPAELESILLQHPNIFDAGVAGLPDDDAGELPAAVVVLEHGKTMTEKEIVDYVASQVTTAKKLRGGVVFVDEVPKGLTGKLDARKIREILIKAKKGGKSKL

[5] = Luminescence Cell-Based Dose Confirmation HTS to Identify Inhibitors of Platelet Dense Granule Release. [Related pubchem assays: 1663 (Primary HTS), 1678 (Summary of Project)]; format: functional
[6] = growth suppression of PTEN-null colon cells, dose response, cell-based, HCT116 PTEN knockout (AID 1047); format: functional;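 note: HCT116 colon tumor cells with PTEN knocked out; cells exposed to compound for 60 hours before readout; potency for loss of cell viability measured by luminescence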
[7] = growth suppression of beta-catenin-knockout colon cells, dose response, cell-based, HCT116, human colon tumor (AID 1045); format: functional;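 note: HCT116 colon tumor cells with beta catenin knocked out; cells exposed to compound for 60 hours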
Nonstructural protein 1 = Nonstructural protein 1 (Influenza A virus, UniProt Q194T2); format: functional, Influenza A virus (A/California/07/2009(H1N1))
Nonstructural protein 1, sequence (Q194T2 whole entry): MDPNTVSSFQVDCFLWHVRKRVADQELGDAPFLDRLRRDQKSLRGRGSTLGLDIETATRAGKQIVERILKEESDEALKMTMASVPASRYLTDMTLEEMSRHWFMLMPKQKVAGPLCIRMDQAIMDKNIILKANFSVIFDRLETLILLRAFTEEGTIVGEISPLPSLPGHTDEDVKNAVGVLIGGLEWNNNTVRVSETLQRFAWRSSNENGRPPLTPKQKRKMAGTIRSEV

Large T antigen = Large T antigen (Simian virus 40, UniProt P03070); format: functional, Betapolyomavirus macacae;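 note: Confirmatory-stage PubChem screen for compounds that inhibit SV40 T antigen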
Large T antigen, sequence (P03070 whole entry): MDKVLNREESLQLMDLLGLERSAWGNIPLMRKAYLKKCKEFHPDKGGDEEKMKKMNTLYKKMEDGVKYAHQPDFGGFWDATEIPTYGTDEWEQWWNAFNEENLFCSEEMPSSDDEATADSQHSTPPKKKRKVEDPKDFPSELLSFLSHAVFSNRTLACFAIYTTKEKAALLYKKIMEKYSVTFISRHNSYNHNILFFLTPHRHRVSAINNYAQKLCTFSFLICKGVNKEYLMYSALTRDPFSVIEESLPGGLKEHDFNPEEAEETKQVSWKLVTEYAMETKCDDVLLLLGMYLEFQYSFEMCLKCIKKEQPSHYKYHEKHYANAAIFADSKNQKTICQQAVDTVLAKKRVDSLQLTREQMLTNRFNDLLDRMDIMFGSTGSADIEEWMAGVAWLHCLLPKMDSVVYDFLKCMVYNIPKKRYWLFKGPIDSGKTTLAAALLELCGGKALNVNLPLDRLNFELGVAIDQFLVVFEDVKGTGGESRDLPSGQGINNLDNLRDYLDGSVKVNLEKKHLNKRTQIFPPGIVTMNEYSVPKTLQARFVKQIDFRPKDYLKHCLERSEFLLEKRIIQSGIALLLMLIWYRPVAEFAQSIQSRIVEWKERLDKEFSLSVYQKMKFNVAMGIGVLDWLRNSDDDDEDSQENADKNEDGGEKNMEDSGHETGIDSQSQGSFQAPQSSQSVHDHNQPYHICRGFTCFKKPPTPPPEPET

[8] = target: T3, Rac GTPase-activating protein 1 (Homo sapiens, UniProt Q9H0H5); assay: MgcRacGAP GTPase-activating activity inhibitors, confirmation, biochemical, ADP Hunter fluorescence, primary and confirmatory (AID 624330); format: functional
T3 sequence (Q9H0H5 whole entry): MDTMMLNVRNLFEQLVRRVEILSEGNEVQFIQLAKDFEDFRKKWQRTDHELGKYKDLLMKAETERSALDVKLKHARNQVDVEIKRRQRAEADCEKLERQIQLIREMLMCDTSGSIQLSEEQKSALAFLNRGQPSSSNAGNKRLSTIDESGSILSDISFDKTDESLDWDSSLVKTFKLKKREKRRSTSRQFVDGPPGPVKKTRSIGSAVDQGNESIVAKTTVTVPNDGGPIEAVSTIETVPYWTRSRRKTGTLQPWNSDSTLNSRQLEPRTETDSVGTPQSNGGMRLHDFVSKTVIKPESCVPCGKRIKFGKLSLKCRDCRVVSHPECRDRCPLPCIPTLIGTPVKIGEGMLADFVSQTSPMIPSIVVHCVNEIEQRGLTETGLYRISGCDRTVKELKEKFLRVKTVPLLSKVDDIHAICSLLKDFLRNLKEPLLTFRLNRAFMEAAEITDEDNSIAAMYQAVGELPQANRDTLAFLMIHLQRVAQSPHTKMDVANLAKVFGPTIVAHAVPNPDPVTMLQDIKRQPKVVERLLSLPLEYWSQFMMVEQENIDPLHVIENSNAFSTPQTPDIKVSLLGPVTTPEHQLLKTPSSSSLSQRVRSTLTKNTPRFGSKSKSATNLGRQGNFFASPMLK

Protein skinhead-1 = target: T4, Protein skinhead-1 (Caenorhabditis elegans, UniProt P34707); format: functional
T4 sequence (P34707 whole entry): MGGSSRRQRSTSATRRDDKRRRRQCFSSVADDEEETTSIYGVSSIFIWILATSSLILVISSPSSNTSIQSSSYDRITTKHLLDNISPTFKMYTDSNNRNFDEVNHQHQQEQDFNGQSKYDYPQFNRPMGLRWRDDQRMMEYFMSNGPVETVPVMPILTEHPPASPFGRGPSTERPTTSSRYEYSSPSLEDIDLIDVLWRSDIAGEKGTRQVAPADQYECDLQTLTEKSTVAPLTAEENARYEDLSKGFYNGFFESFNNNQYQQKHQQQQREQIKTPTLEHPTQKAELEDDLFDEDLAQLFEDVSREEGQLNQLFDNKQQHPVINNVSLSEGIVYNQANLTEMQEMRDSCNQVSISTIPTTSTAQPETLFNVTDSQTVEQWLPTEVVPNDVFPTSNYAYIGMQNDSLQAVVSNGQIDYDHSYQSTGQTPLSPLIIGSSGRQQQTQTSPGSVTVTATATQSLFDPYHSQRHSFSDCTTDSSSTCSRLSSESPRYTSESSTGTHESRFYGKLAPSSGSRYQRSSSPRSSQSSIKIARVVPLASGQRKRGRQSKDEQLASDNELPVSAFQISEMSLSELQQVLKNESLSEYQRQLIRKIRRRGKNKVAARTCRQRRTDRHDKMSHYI

[9] = P. falciparum Dd2 growth inhibitors, dose response, SYBR Green, cherry-picked samples (AID 1159567); format: functional, cell-based
[10] = target: T5, Ubiquitin-conjugating enzyme E2 N (Homo sapiens, UniProt P61088); format: functional;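 note: Dose-response confirmation in a TR-FRET assay detecting UBC13-driven polyubiquitin chain formation, inhibition measured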
T5 sequence (P61088 whole entry): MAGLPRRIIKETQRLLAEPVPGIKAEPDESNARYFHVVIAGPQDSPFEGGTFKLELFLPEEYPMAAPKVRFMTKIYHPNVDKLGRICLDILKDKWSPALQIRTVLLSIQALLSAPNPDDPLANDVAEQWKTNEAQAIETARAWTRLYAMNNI

CC1(C)CC(=O)C2=C(C1)OC(/N=C/N1CCOCC1)=C(C#N)C2c1ccccc1 (stereo unspecified)
EC50 [1]: > 300 µM (not active)
EC50 [2]: > 300 µM (not active)

O=[N+]([O-])c1cc(-c2ccc(/C=N/n3cnnc3)o2)ccc1Cl
EC50 [1]: 30.1 µM (active)
EC50 [2]: 32.5 µM (active)

CCOC(=O)c1ccc(/N=C2\C(=S)N(c3ccc(C(=O)OCC)cc3)C(=N)N2/N=C/c2ccccc2)cc1
CC50 [3]: > 40 µM (active)

Cc1ccc(NS(=O)(=O)c2cccc(C(=O)N3CCCCCC3)c2)cc1
EC50 [4]: > 112 µM (not active)
EC50 [5]: > 112 µM (not active)

COc1ccc(C(=O)C(CCC(CNC(C)(C)C)C(=O)c2ccc(OC)cc2)CNC(C)(C)C)cc1 (stereo unspecified)
EC50 [4]: > 112 µM (not active)
EC50 [6]: 3.04 µM (active)
EC50 [7]: 2.48 µM (active)
EC50 [5]: 4.24 µM (active)

Oc1ccc(/C=N/NC(=S)NCCN2CCOCC2)c(O)c1
IC50 (Nonstructural protein 1): 6.59 µM (active)
IC50 (Large T antigen): 7.26 µM (active)
IC50 [8]: 20.6 µM (active)

COc1cccc(NC(=O)C2CCCN(c3ncnc4c3nc3n4CCCCC3)C2)c1 (stereo unspecified)
IC50 (Protein skinhead-1): > 100 µM (inactive)

COc1ccc2c3c(n(C)c2c1)[C@H](CO)N(Cc1ccncc1)CC31CCN(C(=O)Cc2ccncc2)CC1
AC50 [9]: 7.67 µM (active)

CCN(CC)CCC(c1ccc(N(C)C)cc1)c1c(OC)cc(OC)c2c(-c3ccccc3)cc(=O)oc12 (stereo unspecified)
IC50 [10]: > 20 µM (inactive)
IC50 (Nonstructural protein 1): 13.6 µM (active)

CC(=O)Nc1cccc(N2C(=O)CC(Cc3ccccc3)C2=O)c1 (stereo unspecified)
EC50 [4]: > 112 µM (not active)
EC50 [5]: > 112 µM (not active)

COC(=O)c1cccc(NC(=O)Nc2ccc(Cl)cc2Cl)c1
EC50 [4]: > 112 µM (not active)
EC50 [5]: > 112 µM (not active)

Cc1ccc(NC(=O)C(=O)c2ccc(C)cc2)cc1
IC50 (Protein skinhead-1): 98.5 µM (inactive)

CCCn1c(O)c(C#N)c(C)c(CN2CCCCC2)c1=O
EC50 [1]: > 300 µM (inconclusive)
EC50 [2]: > 300 µM (not active)

CSc1ccc(/C=N/NC(=O)c2cccc(O)c2)cc1
EC50 [4]: 0.619 µM (active)
EC50 [5]: 6.7 µM (active)

Cc1ccn2c(-c3csc(NCc4ccccc4)n3)c(C)nc2c1
CC50 [3]: > 40 µM (active)

COc1ccc(CN2C[C@H](C)[C@@H](OC)CN(C)C(=O)c3cc(NC(=O)c4nc5ccccc5s4)ccc3OC[C@@H]2C)cc1
AC50 [9]: 4.9 µM (active)

COc1cc(OC)c(NC(=O)c2cc(S(=O)(=O)N3CCOCC3)cn2C)cc1Cl
EC50 [4]: > 112 µM (not active)
EC50 [5]: > 112 µM (not active)
